Assay results taken from US12139481B2, “Compositions comprising macrocycle derivatives incorporating bridged macrocycles and methods of producing and using same” (Southwestern Oklahoma State University, priority 2015, dated 2024).

Assays:
[1] = test system: S. mansoni newly transformed schistosomula (NTS); assay: In vitro testing on Schistosoma mansoni newly transformed schistosomula (NTS), viability score; assay type: cell-based; conditions: NTS S. mansoni, 33 μM, 72 h
Description: Assays were prepared according to the laboratory SOP for the lab of Dr. Jennifer Keiser (Swiss Tropical and Public Health Institute, Basel). Harvested S. mansoni cercariae (Liberian strain) obtained from infected Biomphalaria glabrata snails were mechanically transformed into newly transformed schistosomula (NTS) following standard procedures. Briefly, snails were placed under light in the morning to stimulate cercarial shedding. The cercarial suspension was collected, cooled for 30 minutes, and then vigorously pipetted (30×) and vortexed (3 minutes). The suspension was then placed in the incubator (37° C. and 5% CO2) for 30 minutes, and the vortexing and pipetting steps were repeated. The transformation was complete at this point, and the tails were separated from the heads by rinsing three times with cold HBSS. NTS were then incubated overnight in culture medium overnight and used the next day.
The original stock compounds (which were not already dissolved) were dissolved in dimethyl sulfoxide (DMSO) to a concentration of 10 mM. 100 NTS were placed in each well of a 96-well plate with culture medium, and the test compound for a final well volume of 250 μl. […] NTS incubated with no more than 1% DMSO served as control. NTS were kept in an incubator at 37° C. and 5% CO2 for up to 72 hours. After 72 hours, the condition of the NTS was microscopically evaluated using a scale from 3 (normal activity and no tegument alteration) to 0 (dead, completely granulated).

C. glabrata ATCC 90030 = assay: Antifungal broth dilution assay against C. glabrata (modified CLSI); assay type: cell-based, Candida glabrata; conditions: for C. glabrata IC50 / IC50: in vitro; for IC50: converted with molecular weight; for X more potent than Amphotericin B: molar IC50 ratio versus amphotericin B
Outline: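 Modified CLSI broth microdilution with OD monitoring before and after incubation at 35 °C: Candida in RPMI 1640/MOPS pH 6.0, 1.5×10^3 CFU/ml, 46-50 h; Staphylococcus in cation-adjusted Mueller-Hinton pH 7.3, 5.0×10^5 CFU/ml, 16-20 h. IC50 from curve fit; MIC is the lowest concentration with no growth; MFC/MBC from subculture.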

[2] = test system: L. donovani promastigotes; assay: Antileishmanial Alamar Blue assay on promastigotes; assay type: cell-based, Leishmania donovani; conditions: for X more potent than Pentamidine: L. donovani, ratio of molar IC50 to Pentamidine; for L. donovani IC50 / IC50: promastigotes, 48 hours, Alamar Blue; for IC50: read-out: L. donavani IC50
Outline: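 L. donovani promastigotes in RPMI 1640 with 10% FCS, from 3-day culture, were set at 5×10^5/mL and exposed to compound (50-3.1 μg/mL) for 48 hours at 26° C. Growth read by Alamar Blue fluorescence (ex 544/em 590 nm); IC50 from percent growth versus concentration.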

[3] = test system: Cryptococcus neoformans ATCC 90113; assay: Antimicrobial microdilution assay against Cryptococcus neoformans (modified CLSI/NCCLS, optical density); assay type: cell-based; conditions: for X more potent than Amphotericin B: C. neoformans, ratio of molar IC50 to Amphotericin B; for C. neoformans IC50 / IC50: in vitro, C. neoformans ATCC 90113; for IC50: read-out: C. neoformans IC50 (mol/L)
Outline: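 Broth microdilution (modified CLSI) in RPMI pH 6.0, samples serially diluted in 20% DMSO/saline and tested in duplicate, growth followed by OD630 before and after incubation. MFC is the lowest concentration giving no growth when 5 μL from clear wells is plated on agar.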

Row | Compound | Effect at 72 h (%) [1] [%] | C. glabrata IC50 (C. glabrata ATCC 90030) [µg/mL] | IC50 (C. glabrata ATCC 90030) [µM] | X more potent than Amphotericin B (C. glabrata ATCC 90030) | X more potent than Pentamidine [2] | L. donovani IC50 [2] [µg/mL] | IC50 [2] [µM] | X more potent than Amphotericin B [3] | C. neoformans IC50 [3] [µg/mL] | IC50 [3] [µM]
1 | CC(=O)[O-].CC(=O)[O-].CC(=O)[O-].CN1CCN2CCN(CC1)CCN(Cc1cc(CN3CCN4CCN(C)CCN(CC4)CC3)cc(CN3CCN4CCN(C)CCN(CC4)CC3)c1)CC2.F[P-](F)(F)(F)(F)F.F[P-](F)(F)(F)(F)F.F[P-](F)(F)(F)(F)F.O.O.O.O.O.O.[Ni+2].[Ni+2].[Ni+2] [BNS19] | 18.02 | 4.900 | 2.97 | 0.48 |  |  |  |  |  | 
2 | m-CB-cyclens HCl salt [DJC05C] | 5.41 |  |  |  | 0.21 | 22.89 | 25.7 | 0.23 | 0.940 | 1.06
3 | CC(=O)[O-].CC(=O)[O-].CN1CCCN2CCN(CCCN(Cc3cccc(CN4CCCN5CCN(C)CCCN(CC5)CC4)c3)CC2)CC1.F[P-](F)(F)(F)(F)F.F[P-](F)(F)(F)(F)F.[Cu+2].[Cu+2] [RM52, [Cu2(m-CB-Cyclams)(OAc)2][PF6]2] | 5.41 | 4.940 | 4.42 | 0.32 |  |  |  | 0.32 | 0.820 | 0.733
4 | [Ni(Bn1Me1Bcyclam)(OAc)]PF6•0.5NH4PF6 [TRH11B] | 24.32 |  |  |  | 0.09 | 38.64 | 59.7 |  |  | 
5 | CN1CCCN2CCN(CCCN(Cc3cc(CN4CCCN5CCN(C)CCCN(CC5)CC4)cc(CN4CCCN5CCN(C)CCCN(CC5)CC4)c3)CC2)CC1 [BNS018, tris-CB-cyclams] | 11.71 |  |  |  | 0.57 | 7.73 | 9.25 | 2.21 | 0.090 | 0.108
6 | CC(=O)[O-].F[P-](F)(F)(F)(F)F.[Zn+2].c1ccc(CN2CCN3CCN(CC2)CCN(Cc2ccccc2)CC3)cc1 [RM42, [Zn(Bn2Bcyclen)(OAc)]PF6] | 30.63 |  |  |  | 0.73 | 4.73 |  |  |  | 
7 | CC(=O)[O-].CC(=O)[O-].CC(=O)[O-].F[P-](F)(F)(F)(F)F.F[P-](F)(F)(F)(F)F.F[P-](F)(F)(F)(F)F.[Co+2].[Co+2].[Co+2].c1c(CN2CCCN3CCN(CCCNCC2)CC3)cc(CN2CCCN3CCN(CCCNCC2)CC3)cc1CN1CCCN2CCN(CCCNCC1)CC2 [CDG025, [Co3(tris-SB-Cyclams)(OAc)3][PF6]3] | 18.02 | 1.500 | 0.948 | 1.50 |  |  |  | 0.21 | 1.800 | 1.14
8 | CC(=O)[O-].CC(=O)[O-].CC(=O)[O-].F[P-](F)(F)(F)(F)F.F[P-](F)(F)(F)(F)F.F[P-](F)(F)(F)(F)F.F[P-](F)(F)(F)(F)F.[NH4+].[Zn+2].[Zn+2].[Zn+2].c1c(CN2CCCN3CCN(CCCNCC2)CC3)cc(CN2CCCN3CCN(CCCNCC2)CC3)cc1CN1CCCN2CCN(CCCNCC1)CC2 [CDG026, [Zn3(tris-SB-Cyclams)(OAc)3][PF6]3•NH4PF6] | 11.71 | 3.420 | 1.94 | 0.73 |  |  |  | 0.04 | 10.030 | 5.69
9 | CC(=O)[O-].F[P-](F)(F)(F)(F)F.[Co+2].c1ccc(CN2CCCN3CCN(CCCN(Cc4ccccc4)CC3)CC2)cc1 [TC11, [Co(Bn2Bcyclam)(OAc)]PF6] | 24.32 |  |  |  | 0.10 | 35.29 | 52.7 |  |  | 
10 | Cl.Cl.Cl.Cl.Cl.Cl.Cl.Cl.O.O.O.O.c1cc(CN2CCCN3CCN(CCCNCC2)CC3)cc(CN2CCCN3CCN(CCCNCC2)CC3)c1 [KS226, m-SB-cyclams HCl salt] | 5.41 |  |  |  | 0.28 | 17.61 | 19.2 | 3.13 | 0.070 | 0.0762
11 | CC(=O)[O-].CC(=O)[O-].CC(=O)[O-].CN1CCN2CCN(CC1)CCN(Cc1cc(CN3CCN4CCN(C)CCN(CC4)CC3)cc(CN3CCN4CCN(C)CCN(CC4)CC3)c1)CC2.F[P-](F)(F)(F)(F)F.F[P-](F)(F)(F)(F)F.F[P-](F)(F)(F)(F)F.[Cu+2].[Cu+2].[Cu+2] [BNS21, [Cu3(tris-CB-Cyclens)(OAc)3][PF6]3] | 5.41 |  |  |  |  |  |  | 0.28 | 1.320 | 0.85
12 | [Ni2(m-SB-Cyclams)(OAc)2][PF6]2 [KS25] | 18.02 |  |  |  |  |  |  | 0.02 | 16.030 | 15.7
13 | [Cu3(tris-SB-Cyclens)(OAc)3][PF6]3•0.5NH4PF6 [CDG022] | 11.71 |  |  |  |  |  |  | 0.07 | 5.480 | 3.44
14 | [Zn2(m-SB-Cyclams)(OAc)2][PF6]2 [KS26] | 11.71 |  |  |  |  |  |  | 0.02 | 12.510 | 12.1
15 | CC(=O)[O-].CC(=O)[O-].CN1CCN2CCN(CC1)CCN(Cc1cccc(CN3CCN4CCN(C)CCN(CC4)CC3)c1)CC2.F[P-](F)(F)(F)(F)F.F[P-](F)(F)(F)(F)F.[Zn+2].[Zn+2] [DJC07, [Zn2(m-CB-Cyclens)(OAc)2][PF6]2] | 0.00 |  |  |  |  |  |  | 0.03 | 7.410 | 
16 | CC(=O)[O-].F[P-](F)(F)(F)(F)F.[Ni+2].c1ccc(CN2CCN3CCN(CC2)CCN(Cc2ccccc2)CC3)cc1 [TC10, [Ni(Bn2Bcyclen)(OAc)]PF6] | 30.63 |  |  |  | 0.31 | 10.95 | 17.1 |  |  | 
